Measured values published in article PMC7374097, “UGT2B17 modifies drug response in chronic lymphocytic leukaemia” (British Journal of Cancer, 2020).
Where two headings read alike, the source gives them in different places.

B1: UGT2B17 (Homo sapiens) (protein)
chain: GKVLVWPTEYSHWINMKTILEELVQRGHEVIVLTSSASILVNASKSSAIKLEVYPTSLTKNDLEDFFMKMFDRWTYSISKNTFWSYFSQLQELCWEYSDYNIKLCEDAVLNKKLMRKLQESKFDVLLADAVNPCGELLAELLNIPFLYSLRFSVGYTVEKNGGGFLFPPSYVPVVMSELSDQMIFMERIKNMIYMLYFDFWFQAYDLKKWDQFYSEVLGRPTTLFETMGKAEMWLIRTYWDFEFPRPFLPNVDFVGGLHCKPAKPLPKEMEEFVQSSGENGIVVFSLGSMISNMSEESANMIASALAQIPQKVLWRFDGKKPNTLGSNTRLYKWLPQNDLLGHPKTKAFITHGGTNGIYEAIYHGIPMVGIPLFADQHDNIAHMKAKGAALSVDIRTMSSRDLLNALKSVINDPIYKENIMKLSRIHHDQPVKPLDRAVFWIEFVMRHKGAKHLRVAAHNLTWIQYHSLDVIAFLLACVATMIFMITKCCLFCFRKLAKTGKKKKRD
B2: UGT1A4 (Homo sapiens) (protein)
chain: GKVLVVPTDGSPWLSMREALRELHARGHQAVVLTPEVNMHIKEEKFFTLTAYAVPWTQKEFDRVTLGYTQGFFETEHLLKRYSRSMAIMNNVSLALHRCCVELLHNEALIRHLNATSFDVVLTDPVNLCGAVLAKYLSIPAVFFWRYIPCDLDFKGTQCPNPSSYIPKLLTTNSDHMTFLQRVKNMLYPLALSYICHTFSAPYASLASELFQREVSVVDLVSYASVWLFRGDFVMDYPRPIMPNMVFIGGINCANGKPLSQEFEAYINASGEHGIVVFSLGSMVSEIPEKKAMAIADALGKIPQTVLWRYTGTRPSNLANNTILVKWLPQNDLLGHPMTRAFITHAGSHGVYESICNGVPMVMMPLFGDQMDNAKRMETKGAGVTLNVLEMTSEDLENALKAVINDKSYKENIMRLSSLHKDRPVEPLDLAVFWVEFVMRHKGAPHLRPAAHDLTWYQYHSLDVIGFLLAVVLTVAFITFKCCAYGYRKCLGKKGRVKKAHKSKTH

Assays:
MEC1 cells [1] = experiment: MTS cell viability assay, MEC1 cells (control or overexpressing UGT2B17); assay type: cell-based, human; conditions: for IC50: Homo sapiens, 72 h; for Fold over control: MEC1, IC50 2B17 / CTRL
Procedure: (§1) Cells were plated at 1 × 10^4 cells/well (MEC1) or at 5 × 10^4 cells/well (JVM2) in 96-well U-bottom tissue culture plates (BD Bioscience, Mississauga, ON, Canada). Drugs were added at time of plating at concentrations ranging from 1 nM to 100 µM (7–9 concentrations per drug), depending on the drug and based on cell viability. MTS cell viability assays (Aqueous One assay, Promega, Madison, WI, USA) were conducted 72 h after treatment initiation according to the manufacturer’s instructions. […] Control cells were treated with corresponding vehicle concentration. […] IC50 were calculated by fitting variable slope non-linear curves to normalised response data from drug treatments using GraphPad Prism v5 (GraphPad Software Inc., La Jolla, CA, USA). Assays were replicated at least three times in triplicates.

JVM2 cells [2] = experiment: MTS cell viability assay, JVM2 cells (control or overexpressing UGT2B17); assay type: cell-based, human; conditions: for IC50: Homo sapiens, JVM-2, 72 h; for Fold over control: JVM2, IC50 2B17 / CTRL
Procedure: as §1

JVM2 cells [3] = conditions: JVM2, Annexin V/PI, 72 h
Procedure: (§2) Cells plated in 96-well plates at 2 × 10^4 cells/well (MEC1) or 3 × 10^4 cells/well (JVM2) were exposed to varying drug concentrations as above for 72 h. Cells were washed, labelled for 12 min with Annexin V (1:200) and PI (2 µg/ml) in Annexin V binding buffer, then immediately analysed by flow cytometry on a FACSCelesta equipped with a high throughput sampler (BD Bioscience). Annexin V labelling assays were replicated at least twice in duplicates.
(§3) MEC1 (a, c, e) and JVM2 (b, d, f) cells expressing low or high UGT2B17 levels were exposed to
(§4) increasing drug concentrations. Cells were stained with Annexin V (AnV) and propidium iodide (PI) 72
(§5) hours after treatment initiation. The AV-/PI- cells constituted the viable cell population.

MEC1 cells [4] = conditions: MEC1, Annexin V/PI, 72 h
Procedure: as §2, §3, §4, §5

UGT2B17 expression = experiment: UGT2B17 mRNA by RT-qPCR in drug-treated cell models; assay type: cell-based, human; conditions: MEC1, JVM2 and EHEB cells, drug treatment; P < 0.01
[5] = tested on: fludarabine glucuronidation; experiment: Fludarabine glucuronidation in drug-treated cell models; assay type: cell-based, human
Procedure: (§6) Electrospray ionisation was performed in the positive ion mode.

[6] = Glucuronidation assay with human liver microsomes; conditions: human, human liver microsomes, pH 7.5
Procedure: as §6

human liver microsomes [7] = experiment: Glucuronidation assay with human liver microsomes; conditions: for Glucuronide (G) products formed: pooled human liver microsomes, MS
Procedure: as §6

[8] = tested on: individual human UGT isoforms; experiment: Screening of tissues and individual recombinant UGT1A (n = 8) and UGT2B (n = 6) enzymes by quantitative MS; conditions: liver, kidney, intestine and recombinant UGTs
Procedure: as §6

human liver microsomes [9] = target: T1, human liver microsomes (Homo sapiens, UniProt P22310); experiment: Glucuronidation assay with human liver microsomes; conditions: UGT1A4 inhibitory constant Ki, Liver, inhibitor hecogenin
T1 sequence (P22310 29-534): B2 chain
Procedure: as §6

UGT1A4 = target: T2, UGT1A4 (Homo sapiens, UniProt P22310); experiment: Glucuronidation assay with UGT1A4 supersomes; conditions: for Ki: UGT1A4 inhibitory constant Ki, UGT1A4, inhibitor hecogenin
T2 sequence (P22310 29-534): B2 chain
Procedure: In the absence of commercially available UGT2B11 supersomes, microsomal proteins derived from HEK293 expressing the recombinant UGT2B11 enzyme were used. […] Samples were then stopped by adding 100 µL cold methanol, centrifuged at 16,000×g for 10 min and supernatants analysed by mass spectrometry. The following negative controls were included for each analysis: reaction assays without substrate, without the microsomal fraction and without substrate and microsomal fraction.

[10] = substrate: Nc1nc(F)nc2c1ncn2[C@@H]1O[C@H](CO)[C@@H](O)[C@@H]1O; experiment: cells, lysate or membranes named; conditions: predominant drug-G, pH 7.5, 37.0 °C
[11] = MEC1 cells overexpressing UGT2B17, MTS, read-out: 2B17 IC50
[12] = MEC1 control cells, MTS, read-out: CTRL IC50
[13] = JVM2 cells overexpressing UGT2B17, MTS, read-out: 2B17 IC50
[14] = JVM2 control cells, MTS, read-out: CTRL IC50

Glucuronide (G) products formed (human liver microsomes [7])	Molecule	IC50 (MEC1 cells [1]; [11])	IC50 (MEC1 cells [1]; [12])	Fold over control (MEC1 cells [1])	IC50 (JVM2 cells [2]; [13])	IC50 (JVM2 cells [2]; [14])	Fold over control (JVM2 cells [2])	also measured
at least one G product	CCS(=O)(=O)N1CCN(c2ccc(Nc3ncc(C(N)=O)c(NC4CC4)n3)cc2)CC1 [cerdulatinib]	–	–	–	–	–	–	UGT enzyme(s) involved in glucuronidation of the drug [8]: UGT2B17 plays a role in the inactivation
–	C[C@@H]1CC[C@@]2(OC1)O[C@H]1C[C@H]3[C@@H]4CC[C@H]5C[C@@H](O)CC[C@]5(C)[C@H]4CC(=O)[C@]3(C)[C@H]1[C@@H]2C [Hecogenin, hecogenin]	–	–	–	–	–	–	Ki (human liver microsomes [9]; substrate ibrutinib): 5.8 µM; Ki (human liver microsomes [9]; substrate idelalisib): 0.9 µM; Formation of ibrutinib and idelalisib G1 and G2 abolished (UGT1A4; UGT1A4 and livers, in the presence of hecogenin): ~90%; Ki (UGT1A4; substrate ibrutinib): 2.8 µM; Ki (UGT1A4; substrate idelalisib): 0.6 µM
at least one G product	CC#CC(=O)N1CCC[C@H]1c1nc(-c2ccc(C(=O)Nc3ccccn3)cc2)c2c(N)nccn12 [acalibrutinib, acalabrutinib]	–	–	–	–	–	–	–
at least one G product	CC1(C)CCC(CN2CCN(c3ccc(C(=O)NS(=O)(=O)c4ccc(NCC5CCOCC5)c([N+](=O)[O-])c4)c(Oc4cnc5[nH]ccc5c4)c3)CC2)=C(c2ccc(Cl)cc2)C1 [Venetoclax, venetoclax]	4.16 µM	2.22 µM	1.87	2.94 µM	4.06 µM	0.72	–
–	CC[C@H](Nc1ncnc2[nH]cnc12)c1nc2cccc(F)c2c(=O)n1-c1ccccc1 [Idelalisib, idelalisib]	7.4 µM	1.73 µM	–	2.95 µM	1.79 µM	–	Cytotoxicity at clinically relevant concentrations (JVM2 cells [3]): low and no cytotoxicity; Cytotoxicity at clinically relevant concentrations (MEC1 cells [4]): low and no cytotoxicity; Fludarabine glucuronidation following drug treatment [5]: increased
–	C=CC(=O)N1CCC[C@@H](n2nc(-c3ccc(Oc4ccccc4)cc3)c3c(N)ncnc32)C1 [Ibrutinib, ibrutinib]	4.13 µM	0.99 µM	–	8.95 µM	3.64 µM	–	–
at least one G product	C[C@H](Nc1ncnc2[nH]cnc12)c1cc2cccc(Cl)c2c(=O)n1-c1ccccc1 [duvelisib]	–	–	–	–	–	–	–
–	B1	–	–	–	–	–	–	Km ([10]; other: UGT2B17): 949 µM; Vmax ([10]; other: UGT2B17): 0.01 pmol/min/mg protein
–	B2	–	–	–	–	–	–	Km ([10]; other: UGT1A4): 1020 µM; Vmax ([10]; other: UGT1A4): 0.05 pmol/min/mg protein

Molecule	Glucuronide (G) products formed (human liver microsomes [7])	IC50 (MEC1 cells [1]; [11])	IC50 (MEC1 cells [1]; [12])	Fold over control (MEC1 cells [1])	IC50 (JVM2 cells [2]; [13])	IC50 (JVM2 cells [2]; [14])	Fold over control (JVM2 cells [2])	also measured
Nc1nc(F)nc2c1ncn2[C@@H]1O[C@H](CO)[C@@H](O)[C@@H]1O [Fludarabine, fludarabine]	two glucuronides	58.8 µM	29.3 µM	2.01	15.1 µM	9.08 µM	1.66	Concentration at which cytotoxic (JVM2 cells [3]): > 5 µM; Cytotoxicity at clinically relevant concentrations (JVM2 cells [3]): no cytotoxicity; Concentration at which cytotoxicity was observed (MEC1 cells [4]): > 40 µM; Cytotoxicity at clinically relevant concentrations (MEC1 cells [4]): no cytotoxicity; Induction of UGT2B17 expression (UGT2B17 expression): significantly induced; Fludarabine glucuronidation following drug treatment [5]: increased; Km at 6 h [6]: 878 µM; Velocity Vmax (human liver microsomes [7]; Liver, predominant drug-G, velocity at highest substrate concentration): 0.12 pmol/min/mg protein; UGT enzyme(s) involved in glucuronidation of the drug [8]: UGT2B17 and UGT1A4 were the main conjugating enzymes
Cn1c(CCCC(=O)O)nc2cc(N(CCCl)CCCl)ccc21 [Bendamustine, bendamustine]	at least one G product	76 µM	60.1 µM	1.27	62.8 µM	54.2 µM	1.16	–
O=C(O)CCCc1ccc(N(CCCl)CCCl)cc1 [Chlorambucil, chlorambucil]	at least one G product	12.3 µM	7.99 µM	1.55	8.64 µM	10.4 µM	0.83	UGT enzyme(s) involved in glucuronidation of the drug [8]: UGT2B17 plays a role in the inactivation
